Converted amounts (≈) assume the structure as drawn. Where two headings read alike, the source gives them in different places. Blank lines part the entries; values can stand above or below the compound they belong to.
Key:
[1] = comparison value for benzenesulfinic acid; cited from earlier work
[2] = Precipitation of 2-(2-hydroxyphenyl)benzenesulfinic acid from acidified HPBS solution; supernatant concentration by HPLC and redissolution; format: physicochemical
Method: The pH of a concentrated (>50 mM) HPBS solution was adjusted to 1.2 at ambient temperature with concentrated sulfuric acid. An amorphous white precipitate formed rapidly and the supernatant HPBS concentration, as determined by HPLC, dropped to the range of 5-8 μM.

[3] = Solubility of 2-(2-hydroxyphenyl)benzenesulfinic acid and DBTSi in liquid hydrocarbons; format: physicochemical
Excerpt: Solubility of 2-(2-hydroxyphenyl)benzenesulfinic acid and DBTSi in liquid hydrocarbons
The solubilities of 2-(2-hydroxyphenyl)benzenesulfinic acid and DBTSi in liquid hydrocarbons such as gas-oil or vacuum-gas-oil in an important parameter in process design as such refinery streams represent ultimate disposal sites for HPBS.

[4] = Titration of HPBS with hydrochloric acid or sulfuric acid (acid requirements, pKa, precipitation); format: physicochemical
Method: Acid requirements for the precipitation of 2-(2-hydroxyphenyl)benzenesulfinic acid were determined via titration with hydrochloric acid or sulfuric acid for solutions prepared from synthetic HPBS or HPBS derived from the biocatalytic oxidation of DBT. The titrations were conducted using standard methods.
FIG. 2 presents titration curves from 3 experiments. In experiment 1, a 110 mM solution of HPBS at pH 13 was treated with aqueous HCl. The HPBS phenolic group was titrated first, with a pKa of about 10.5. Precipitation of solid 2-(2-hydroxyphenyl)benzenesulfinic acid began at about pH 2, as the sulfinate group was protonated.
In experiment 2, a 110 mM HPBS solution equilibrated with a middle distillate (or diesel fuel) at 30° C. and pH 6.6 was titrated with HCl. The middle distillate was added to determine if the presence of middle distillate components have any effect on the protonation of HPBS.
In experiment 3, a 75 mM solution of HPBS prepared via the biocatalytic oxidation of DBT was titrated with sulfuric acid.

Structure (SMILES): O=S(O)c1ccccc1 [benzenesulfinic acid]
pKa [1]: 1.2

Structure (SMILES): O=S(O)c1ccccc1-c1ccccc1O [2-(2-hydroxyphenyl)benzenesulfinic acid]
solubility of precipitate in organic solvents, such as toluene ([2]; organic solvents, such as toluene): only sparingly soluble
dissolution of precipitate in water ([2]; water at neutral pH): dissolved rapidly
solubility in TMD ([3]; ambient temperature, TMD, x-ray fluorescence detection): below the limits of detection
solubility in hexadecane ([3]; ambient temperature, hexadecane, x-ray fluorescence detection): below the limits of detection
solubility in toluene ([3]; ambient temperature, toluene, x-ray fluorescence detection): below the limits of detection
solubility in gas-oil ([3]; gas-oil, 50° C.): no detectable solubility
solubility in middle distillate ([3]; middle distillate, 50° C.): no detectable solubility
pH at which precipitation of solid began ([4]; 110 mM HPBS titrated with aqueous HCl): ~2

solubility in gas-oil [3]: ca. 1.4%
solubility in hexadecane [3]: 0.33 % by weight
solubility in middle distillate [3]: ca. 1%
solubility in vacuum gas oil [3]: 4.3%
temperature dependence of solubility in the hydrocarbon [3]: increased with increasing temperature
Structure (SMILES): O=S1Oc2ccccc2-c2ccccc21 (centres unmarked) [DBTSi, dibenzothiophene sultine]
solubility in liquid hydrocarbons, in words [3]: substantially more soluble in liquid hydrocarbons

Structure (SMILES): O=S(O)c1ccccc1-c1ccccc1O [HPBS, 2-(2'-hydroxyphenyl)benzenesulfinate]
solubility ([2]; water, pH 1.2, ambient temperature, concentrated (>50 mM) HPBS, sulfuric acid, HPLC, read-out: supernatant HPBS concentration after precipitation): 5 to 8 µM (≈ 1.17 to 1.87 µg/mL)
pKa ([4]; 110 mM HPBS at pH 13 titrated with aqueous HCl, read-out: pKa of phenolic group): ~10.5

From patent US6071738A, “Conversion of organosulfur compounds to oxyorganosulfur compounds for desulfurization of fossil fuels” (Energy BioSystems Corporation, priority 1997, dated 2000)
